Data: US11066369B2, “N-(pyridin-2-yl)pyridine-sulfonamide derivatives and their use in the treatment of disease” (Novartis AG, priority 2016, dated 2021)

Experiments:
[1] = target: T1, horseradish peroxidase (HRP) tagged delF508-CFTR (Homo sapiens, UniProt P13569, DEL508-508); test: Measurement of delF508-CFTR-HRP surface expression in CFBE41o- cells; type: cell-based; conditions: delF508-CFTR-HRP surface expression, CFBE41o- cells; for Emax: read-out: DelF508-CFTR-HRP Amax %; for EC50: read-out: DelF508-CFTR-HRP EC50;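 for DelF508-CFTR-HRP Amax %: percent efficacy relative to reference corrector lumacaftor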
T1 construct: expressed in transfected cells
T1 sequence (P13569 with tags, fused parts or gaps DEL508-508): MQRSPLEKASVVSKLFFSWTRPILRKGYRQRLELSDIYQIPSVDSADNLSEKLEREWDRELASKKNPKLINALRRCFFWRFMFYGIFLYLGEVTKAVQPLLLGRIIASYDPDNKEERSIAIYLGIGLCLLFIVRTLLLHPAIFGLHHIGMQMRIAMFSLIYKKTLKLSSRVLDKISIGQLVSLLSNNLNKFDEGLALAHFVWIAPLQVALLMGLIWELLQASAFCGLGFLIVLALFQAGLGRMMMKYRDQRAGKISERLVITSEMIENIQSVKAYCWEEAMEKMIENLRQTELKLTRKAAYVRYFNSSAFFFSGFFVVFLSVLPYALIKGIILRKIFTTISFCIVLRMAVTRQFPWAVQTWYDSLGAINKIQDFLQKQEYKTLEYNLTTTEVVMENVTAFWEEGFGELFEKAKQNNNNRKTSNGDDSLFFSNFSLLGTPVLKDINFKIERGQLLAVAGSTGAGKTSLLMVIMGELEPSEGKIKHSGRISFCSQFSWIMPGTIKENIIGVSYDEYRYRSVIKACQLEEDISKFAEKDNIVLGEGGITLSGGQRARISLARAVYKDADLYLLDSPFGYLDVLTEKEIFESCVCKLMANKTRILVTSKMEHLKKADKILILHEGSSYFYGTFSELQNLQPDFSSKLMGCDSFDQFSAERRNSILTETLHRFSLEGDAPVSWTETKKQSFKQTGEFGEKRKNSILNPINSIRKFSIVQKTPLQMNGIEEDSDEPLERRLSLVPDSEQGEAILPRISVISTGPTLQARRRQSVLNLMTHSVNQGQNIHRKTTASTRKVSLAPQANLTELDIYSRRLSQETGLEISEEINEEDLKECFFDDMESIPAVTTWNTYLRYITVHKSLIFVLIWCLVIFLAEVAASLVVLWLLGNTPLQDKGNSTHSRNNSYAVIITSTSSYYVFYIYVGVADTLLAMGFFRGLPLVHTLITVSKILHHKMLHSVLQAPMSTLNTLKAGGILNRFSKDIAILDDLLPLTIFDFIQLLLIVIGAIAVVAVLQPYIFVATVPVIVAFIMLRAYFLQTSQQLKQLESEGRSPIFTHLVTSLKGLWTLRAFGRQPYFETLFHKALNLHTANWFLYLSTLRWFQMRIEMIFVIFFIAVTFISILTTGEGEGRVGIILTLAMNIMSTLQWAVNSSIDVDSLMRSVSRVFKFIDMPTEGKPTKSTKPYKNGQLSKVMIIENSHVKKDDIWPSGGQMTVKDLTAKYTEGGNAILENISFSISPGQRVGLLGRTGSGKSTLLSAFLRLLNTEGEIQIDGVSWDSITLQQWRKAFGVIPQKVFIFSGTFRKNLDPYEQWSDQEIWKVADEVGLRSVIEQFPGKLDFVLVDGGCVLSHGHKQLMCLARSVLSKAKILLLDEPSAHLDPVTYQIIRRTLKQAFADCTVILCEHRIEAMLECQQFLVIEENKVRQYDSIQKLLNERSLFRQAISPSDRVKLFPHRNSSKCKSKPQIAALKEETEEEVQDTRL
Procedure, shortened: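 CFBE41o- bronchial epithelial cells stably expressing delF508-CFTR with HRP in the fourth extracellular loop; expression induced 48h with 500 ng/mL doxycycline, then compounds added (top 10 μM, 10-point 3-fold series, ≤0.5% DMSO) for 24h at 37° C. Surface HRP measured by luminescence with cell-impermeant substrate; EC50 from logistic fit of triplicates, plate-normalized to lowest concentration; efficacy also relative to a reference corrector.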

[2] = target: T2, delF508-CFTR (Homo sapiens, UniProt P13569, DEL508-508); test: Measurement of delF508-CFTR functional activity in primary human bronchial epithelial cells (HBECs) using Multi-Transepithelial Clamp Circuit (MTECC-24) assay; type: cell-based; conditions: primary CF HBECs; for MTECC24 CFHBEC- Amax %: test compound added 24h before assay plus potentiator, relative to reference combination (2 μM corrector + 0.5 μM potentiator); for EC50: test compound added 24h before assay, in the presence of potentiator, mean of at least two replicates, read-out: MTECC24 CFHBEC- EC50
T2 construct: functional activity of the CFTR channel (Chloride ion transport) in patient derived primary human bronchial epithelial cells; host or cells: patient-derived primary human bronchial epithelial cells (delF508-CFTR)
T2 sequence (P13569 with tags, fused parts or gaps DEL508-508): as above
Procedure, shortened: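 Patient-derived primary delF508-CFTR HBECs, differentiated at air-liquid interface ~2 weeks, treated basolaterally with compound for 24 h, then apical and basolateral compound in HEPES pH 7.4 assay medium. Equivalent short-circuit current (Ieq) recorded on MTECC-24 with sequential amiloride, forskolin, potentiator and INH-172; normalized to 0.1% DMSO, EC50 from curve fit.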

Compound	Emax [1]	EC50 [1]	MTECC24 CFHBEC- Amax % [2]	EC50 [2]
Cc1ccc(F)cc1-c1nc(NS(=O)(=O)c2cccc(N[C@@H]3CCOC[C@@H]3O)n2)ccc1Cl [Example 272, N-[5-chloro-6-(5-fluoro-2-methylphenyl)pyridin-2-yl]-6-{[(3R,4R)-3-hydroxyoxan-4-yl]amino}pyridine-2-sulfonamide]	806%	2310 nM	66.4%	10.5 nM
CC1(C(=O)O)CCN(c2cccc(S(=O)(=O)Nc3ccc(C(F)(F)F)c(-c4ccccc4Cl)n3)n2)CC1 [Example 238, 1-(6-(N-(6-(2-chlorophenyl)-5-(trifluoromethyl)pyridin-2-yl)sulfamoyl)pyridin-2-yl)-4-methylpiperidine-4-carboxylic Acid]	426%	3460 nM	59.0%	19.6 nM
Cc1c(F)cccc1-c1nc(NS(=O)(=O)c2cccc(N3CCCC(C)(C(=O)O)C3)n2)ccc1C(F)(F)F (stereo not drawn) [Example 362, 1-(6-{[6-(3-fluoro-2-methylphenyl)-5-(trifluoromethyl)pyridin-2-yl]sulfamoyl}pyridin-2-yl)-3-methylpiperidine-3-carboxylic Acid]	–	2000 nM	77.9%	0.533 nM
Cc1cccc(C)c1-c1nc(NS(=O)(=O)c2cccc(N[C@H]3C[C@@](C)(O)C3)n2)ccc1Cl [Example 285, N-[5-chloro-6-(2,6-dimethylphenyl)pyridin-2-yl]-6-{[(1r,3s)-3-hydroxy-3-methylcyclobutyl]amino}pyridine-2-sulfonamide]	–	1240 nM	74.1%	18.9 nM
Cc1ccc(F)cc1-c1nc(NS(=O)(=O)c2cccc(N3CC(O)C3)n2)ccc1Cl [Example 234, N-(5-chloro-6-(5-fluoro-2-methylphenyl)pyridin-2-yl)-6-(3-hydroxyazetidin-1-yl)pyridine-2-sulfonamide]	513%	1930 nM	84.0%	11.3 nM
CCc1ccccc1-c1nc(NS(=O)(=O)c2ccnc(N3CCC(C)(C(=O)O)CC3)c2)ccc1C(F)(F)F [Example 374, 1-(4-(N-(6-(2-ethylphenyl)-5-(trifluoromethyl)pyridin-2-yl)sulfamoyl)pyridin-2-yl)-4-methylpiperidine-4-carboxylic Acid]	233%	2780 nM	39.8%	133 nM
Nc1cccc(S(=O)(=O)Nc2ccc(Cl)c(-c3cccc(C(F)(F)F)c3)n2)n1 [Example 73, 6-amino-N-(5-chloro-6-(3-(trifluoromethyl)phenyl)pyridin-2-yl)pyridine-2-sulfonamide]	163%	4240 nM	64.2%	134 nM
O=C(O)[C@@H]1CCCN(c2cccc(S(=O)(=O)Nc3ccc(C(F)(F)F)c(-c4ccccc4C4CCC4)n3)n2)C1 [Example 366, (R)-1-(6-(N-(6-(2-cyclobutylphenyl)-5-(trifluoromethyl)pyridin-2-yl)sulfamoyl)pyridin-2-yl)piperidine-3-carboxylic Acid]	–	1340 nM	66.9%	0.797 nM
Cc1ccccc1-c1nc(NS(=O)(=O)c2cccc(N3CCNC4(CC4)C3)n2)ccc1C(F)(F)F [Example 302, 6-(4,7-diazaspiro[2.5]octan-7-yl)-N-(6-(o-tolyl)-5-(trifluoromethyl)pyridin-2-yl)pyridine-2-sulfonamide]	530%	2320 nM	74.4%	18.3 nM
Cc1ccccc1-c1nc(NS(=O)(=O)c2cccc(N3CCC[C@H](C(=O)O)C3)n2)ccc1C(F)(F)F [Example 333, (3S)-1-(6-{[6-(2-methylphenyl)-5-(trifluoromethyl)pyridin-2-yl]sulfamoyl}pyridin-2-yl)piperidine-3-carboxylic Acid]	428%	1950 nM	47.6%	7.9 nM
Cc1ccccc1-c1nc(NS(=O)(=O)c2cccc(N3C[C@H](O)[C@@H](N4CCCC4)C3)n2)ccc1C(F)(F)F [Example 118, 6-((3′S,4'S)-4′-hydroxy-[1,3′-bipyrrolidin]-1′-yl)-N-(6-(o-tolyl)-5-(trifluoromethyl)pyridin-2-yl)pyridine-2-sulfonamide]	492%	2600 nM	78.5%	11.7 nM
Cc1cccc(C)c1-c1nc(NS(=O)(=O)c2cccc(N3CC(O)C3)n2)ccc1Cl [Example 231, N-(5-chloro-6-(2,6-dimethylphenyl)pyridin-2-yl)-6-(3-hydroxyazetidin-1-yl)pyridine-2-sulfonamide]	465%	1160 nM	71.8%	20.6 nM
Cc1cccc(C)c1-c1nc(NS(=O)(=O)c2cccc(N[C@H]3C[C@@H](O)C3)n2)ccc1Cl [Example 286, N-[5-chloro-6-(2,6-dimethylphenyl)pyridin-2-yl]-6-{[(1s,3s)-3-hydroxycyclobutyl]amino}pyridine-2-sulfonamide]	847%	1490 nM	153.1%	23.9 nM
Cc1c(F)cccc1-c1nc(NS(=O)(=O)c2cccc(N3CCN(C(C)(C)C)CC3)n2)ccc1Cl [Example 140, 6-(4-(tert-butyl)piperazin-1-yl)-N-(5-chloro-6-(3-fluoro-2-methylphenyl)pyridin-2-yl)pyridine-2-sulfonamide]	395%	3480 nM	65.3%	29.5 nM
CCOC(=O)C1(C)CCN(c2cccc(S(=O)(=O)Nc3ccc(C(F)(F)F)c(-c4ccccc4C)n3)n2)CC1 [Example 259, ethyl 4-methyl-1-(6-{[6-(2-methylphenyl)-5-(trifluoromethyl)pyridin-2-yl]sulfamoyl}pyridin-2-yl)piperidine-4-carboxylate]	801%	1570 nM	66.7%	1.9 nM
Cc1ccc(F)cc1-c1nc(NS(=O)(=O)c2cccc(N3CCC(C)(C(=O)O)CC3)n2)ccc1Cl [Example 257, 1-(6-{[5-chloro-6-(5-fluoro-2-methylphenyl)pyridin-2-yl]sulfamoyl}pyridin-2-yl)-4-methylpiperidine-4-carboxylic Acid]	198%	1350 nM	63.0%	21.8 nM
Cc1ccccc1-c1nc(NS(=O)(=O)c2cccc(N3CCN(C)CC3)n2)ccc1C(F)(F)F [Example 189, 6-(4-methylpiperazin-1-yl)-N-(6-(o-tolyl)-5-(trifluoromethyl)pyridin-2-yl)pyridine-2-sulfonamide]	414%	2830 nM	79.0%	31.7 nM
Cc1ccc(F)cc1-c1nc(NS(=O)(=O)c2cccc(N3CC(O)C3)n2)ccc1C(F)(F)F [Example 220, N-(6-(5-fluoro-2-methylphenyl)-5-(trifluoromethyl)pyridin-2-yl)-6-(3-hydroxyazetidin-1-yl)pyridine-2-sulfonamide]	902%	1610 nM	58.6%	3.2 nM
